Laboratory results taken from patent publication US8921059B2, “Method and kit for detection of guaiacol-producing bacterium” (Calpis Co., Ltd., priority 2009, dated 2014).
“Also recorded” adds a separate entry of the source.

What was measured:
[1] = system: A. acidocaldarius ATCC27009; assay: Colony formation of thermotolerant acidophilic bacteria on YSG agar medium containing the substrate (Example 1); assay type: cell-based, Alicyclobacillus acidocaldarius; design: key to detected level of colonies: ++: the detected level was at or above the level of the medium without a substrate (i.e. YSG medium); +: the detected level was lower than the level of the medium without a substrate; −: undetectable; conditions: for detected level of colonies: cultivation at 45° C. for 3 days; for colonies detected: 45° C. for 3 days
Method: (§1) A YSG agar medium containing vanillin, vanillic acid or ferulic acid was used to study the colony formation of thermotolerant acidophilic bacteria (TAB). Four bacterial strains used were A. acidoterrestris ATCC49025, A. acidiphilus JCM21417, A. acidocaldarius ATCC27009 and A. pomorum JCM21459. Among these, A. acidoterrestris ATCC49025 and A. acidiphilus JCM21417 have been reported as the bacterial strains producing guaiacol. […] After cooling to about 50° C., pH was adjusted to 3.7 with 10% sulfuric acid and a plate medium was prepared. The suspensions of the respective bacterial strains were subjected to a heat-shock treatment at 70° C. for 20 min. The bacterial suspensions were serially diluted with phosphate buffered saline up to 10^3 CFU/mL and 100 μL from the dilutions was smeared on the plates for culture. Cultivation was carried out at 45° C. for 3 days before the colonies formed were visually inspected. Similar experiments were carried out with replacing vanillic acid with vanillin or ferulic acid. When the medium was not easily solidified, the amount of agar was appropriately adjusted.

[2] = system: A. acidoterrestris ATCC49025; assay: Effects of culture temperature on the detection level of colonies (Example 2); assay type: cell-based, Alicyclobacillus acidoterrestris; conditions: for number of colonies, relative value (YSG medium without any substrate at 45° C. for 3 days = 100): 75 ppm in YSG medium
Method: Effects of culture temperature on the detection level of colonies of A. acidoterrestris ATCC49025 were studied using YSG agar medium containing vanillin, vanillic acid or ferulic acid. […] The suspensions containing the same number of bacterial cells of A. acidoterrestris ATCC49025 were smeared on the plates and cultured at 45° C. or 30° C. A YSG medium without any substrate was used as a control. The values are expressed as relative values to the number of colonies obtained after cultivation at 45° C. for 3 days in a YSG medium without any substrate being regarded as 100.

[3] = system: A. acidiphilus JCM21417; assay: Colony formation of thermotolerant acidophilic bacteria on YSG agar medium containing the substrate (Example 1); assay type: cell-based, Alicyclobacillus acidiphilus; design: key to detected level of colonies: ++: the detected level was at or above the level of the medium without a substrate (i.e. YSG medium); +: the detected level was lower than the level of the medium without a substrate; −: undetectable; conditions: for detected level of colonies: cultivation at 45° C. for 3 days
Method: as §1

[4] = system: A. acidoterrestris ATCC49025; assay: as above; assay type: cell-based, Alicyclobacillus acidoterrestris; design: key to detected level of colonies: ++: the detected level was at or above the level of the medium without a substrate (i.e. YSG medium); +: the detected level was lower than the level of the medium without a substrate; −: undetectable; conditions: for detected level of colonies: cultivation at 45° C. for 3 days
Text: A YSG agar medium containing vanillin, vanillic acid or ferulic acid was used to study the colony formation of thermotolerant acidophilic bacteria (TAB). Four bacterial strains used were A. acidoterrestris ATCC49025, A. acidiphilus JCM21417, A. acidocaldarius ATCC27009 and A. pomorum JCM21459. Among these, A. acidoterrestris ATCC49025 and A. acidiphilus JCM21417 have been reported as the bacterial strains producing guaiacol. A YSG medium (Merck K.K., YGS Agar; 20.0 g) and vanillic acid (Wako Pure Chemical Industries, Ltd.; 0 to 250 mg) were dissolved in 1000 g of water with heating and subjected to autoclave sterilization (121° C. and 15 min.). After cooling to about 50° C., pH was adjusted to 3.7 with 10% sulfuric acid and a plate medium was prepared. The suspensions of the respective bacterial strains were subjected to a heat-shock treatment at 70° C. for 20 min. The bacterial suspensions were serially diluted with phosphate buffered saline up to 10^3 CFU/mL and 100 μL from the dilutions was smeared on the plates for culture. Cultivation was carried out at 45° C. for 3 days before the colonies formed were visually inspected. Similar experiments were carried out with replacing vanillic acid with vanillin or ferulic acid. When the medium was not easily solidified, the amount of agar was appropriately adjusted.

[5] = system: A. pomorum JCM21459; assay: as above; assay type: cell-based, Alicyclobacillus pomorum; design: key to detected level of colonies: ++: the detected level was at or above the level of the medium without a substrate (i.e. YSG medium); +: the detected level was lower than the level of the medium without a substrate; −: undetectable; conditions: for detected level of colonies: cultivation at 45° C. for 3 days; for colonies detected: 45° C. for 3 days
Method: as §1

[6] = used instead of vanillic acid, concentration not given

COc1cc(/C=C/C(=O)O)ccc1O [ferulic acid]
detected level of colonies ([1]; 25 ppm in YSG agar): − | detected level of colonies ([1]; 50 ppm in YSG agar): − | detected level of colonies ([1]; 75 ppm in YSG agar): − | detection sensitivity compared to the medium without any substrate ([2]; 25 ppm): improved | number of colonies at 30° C. for 5 days compared with 45° C. for 3 days [2, 6]: The same tendency was observed | detected level of colonies ([3]; 25 ppm in YSG agar): ++ | detected level of colonies ([3]; 50 ppm in YSG agar): − | detected level of colonies ([3]; 75 ppm in YSG agar): − | detected level of colonies ([4]; 25 ppm in YSG agar): ++ | detected level of colonies ([4]; 50 ppm in YSG agar): ++ | detected level of colonies ([4]; 75 ppm in YSG agar): − | detected level of colonies ([5]; 25 ppm in YSG agar): − | detected level of colonies ([5]; 50 ppm in YSG agar): − | detected level of colonies ([5]; 75 ppm in YSG agar): −

COc1cc(C(=O)O)ccc1O [vanillic acid]
detected level of colonies ([1]; 10 ppm in YSG agar): ++ | detected level of colonies ([1]; 50 ppm in YSG agar): − | detected level of colonies ([1]; 75 ppm in YSG agar): − | colonies detected ([1]; 75 ppm): no colony was detected | detected level of colonies ([1]; 100 ppm in YSG agar): − | colonies detected ([1]; 100 ppm): no colony was detected | detected level of colonies ([1]; 150 ppm in YSG agar): − | detected level of colonies ([1]; 200 ppm in YSG agar): − | detected level of colonies ([1]; 225 ppm in YSG agar): − | detected level of colonies ([1]; 250 ppm in YSG agar): − | detection sensitivity compared to the medium without any substrate ([2]; 50 ppm): improved | number of colonies, relative value (YSG medium without any substrate at 45° C. for 3 days = 100) ([2]; 30° C., 5 days): 186 | number of colonies, relative value (YSG medium without any substrate at 45° C. for 3 days = 100) ([2]; 45° C., 3 days): 183 | number of colonies at 30° C. for 5 days compared with 45° C. for 3 days ([2]; 75 ppm in solid medium): the same number of colonies is obtained; also recorded: almost the same number of colonies was detected | colonies detected compared to the medium without any substrate ([2]; 75 ppm, 45° C.): more colonies were detected | detected level of colonies ([3]; 10 ppm in YSG agar): ++ | detected level of colonies ([3]; 50 ppm in YSG agar): ++ | detected level of colonies ([3]; 75 ppm in YSG agar): ++ | colonies detected compared with medium without vanillic acid ([3]; 75 ppm, 45° C. for 3 days): the same level or more colonies were detected as in the medium without vanillic acid | detected level of colonies ([3]; 100 ppm in YSG agar): − | colonies detected ([3]; 100 ppm, 45° C. for 3 days): no colony was detected | detected level of colonies ([3]; 150 ppm in YSG agar): − | detected level of colonies ([3]; 200 ppm in YSG agar): − | detected level of colonies ([3]; 225 ppm in YSG agar): − | detected level of colonies ([3]; 250 ppm in YSG agar): − | detected level of colonies ([4]; 10 ppm in YSG agar): ++ | detected level of colonies ([4]; 50 ppm in YSG agar): ++ | detected level of colonies ([4]; 75 ppm in YSG agar): ++ | colonies detected compared with medium without vanillic acid ([4]; 75 ppm, 45° C. for 3 days): the same level or more colonies were detected as in the medium without vanillic acid | detected level of colonies ([4]; 100 ppm in YSG agar): ++ | colonies detected compared with medium without vanillic acid ([4]; 100 ppm, 45° C. for 3 days): the same level or more colonies were detected as in the medium without vanillic acid | detected level of colonies ([4]; 150 ppm in YSG agar): ++ | colonies detected compared with medium without vanillic acid ([4]; 150 ppm, 45° C. for 3 days): detected at the same level as in the medium without vanillic acid | detected level of colonies ([4]; 200 ppm in YSG agar): ++ | colonies detected compared with medium without vanillic acid ([4]; 200 ppm, 45° C. for 3 days): detected at the same level as in the medium without vanillic acid | detected level of colonies ([4]; 225 ppm in YSG agar): + | detection sensitivity of AAT ([4]; 225 ppm, 45° C. for 3 days): lower | detected level of colonies ([4]; 250 ppm in YSG agar): − | colonies detected ([4]; 250 ppm or more, 45° C. for 3 days): no colonies were detected | detected level of colonies ([5]; 10 ppm in YSG agar): ++ | detected level of colonies ([5]; 50 ppm in YSG agar): − | detected level of colonies ([5]; 75 ppm in YSG agar): − | colonies detected ([5]; 75 ppm): no colony was detected | detected level of colonies ([5]; 100 ppm in YSG agar): − | colonies detected ([5]; 100 ppm): no colony was detected | detected level of colonies ([5]; 150 ppm in YSG agar): − | detected level of colonies ([5]; 200 ppm in YSG agar): − | detected level of colonies ([5]; 225 ppm in YSG agar): − | detected level of colonies ([5]; 250 ppm in YSG agar): −

COc1cc(C=O)ccc1O [vanillin]
detected level of colonies ([1]; 500 ppm in YSG agar): − | detected level of colonies ([1]; 750 ppm in YSG agar): − | detected level of colonies ([1]; 900 ppm in YSG agar): − | detected level of colonies ([1]; 950 ppm in YSG agar): − | detected level of colonies ([1]; 1000 ppm in YSG agar): − | detection sensitivity compared to the medium without any substrate ([2]; 750 ppm): improved | number of colonies at 30° C. for 5 days compared with 45° C. for 3 days [2, 6]: The same tendency was observed | detected level of colonies ([3]; 500 ppm in YSG agar): + | detected level of colonies ([3]; 750 ppm in YSG agar): + | detected level of colonies ([3]; 900 ppm in YSG agar): + | detected level of colonies ([3]; 950 ppm in YSG agar): − | detected level of colonies ([3]; 1000 ppm in YSG agar): − | detected level of colonies ([4]; 500 ppm in YSG agar): ++ | detected level of colonies ([4]; 750 ppm in YSG agar): ++ | detected level of colonies ([4]; 900 ppm in YSG agar): ++ | detected level of colonies ([4]; 950 ppm in YSG agar): ++ | detected level of colonies ([4]; 1000 ppm in YSG agar): + | detected level of colonies ([5]; 500 ppm in YSG agar): − | detected level of colonies ([5]; 750 ppm in YSG agar): − | detected level of colonies ([5]; 900 ppm in YSG agar): − | detected level of colonies ([5]; 950 ppm in YSG agar): − | detected level of colonies ([5]; 1000 ppm in YSG agar): −
